Broadly, the IC50 is the concentration that gives 50% inhibition. Broadly, the microsomal CLint is a measure of how fast metabolising enzymes remove a compound, apart from limits set by blood flow. Usually solubility stands for how much of the substance goes into solution per volume. As usually defined, the Kd is the constant that tells how readily two partners part at equilibrium.

In brackets after ≈: the same amount, converted by molar mass. Bounds are passed on as bounds.

The values that follow come from patent US20230406840A1, “N-(2-(3-CYANO-2-AZABICYCLO[3.1.0]HEXAN-2-YL)-2-OXOETHYL)QUINOLINE-4-CARBOXAMIDES” (AstraZeneca AB, priority 2022, published 2023).

In data set [1] the target is Prolyl Oligopeptidase (hPREP) (Homo sapiens (Human), UniProt P48147). The experiment in a line: hPREP inhibition assay. Conditions: hPREP 0.6 nM, Z-Gly-Pro-amino-methylcoumarin 50 μM; read-out: PREP IC50. The data set is classed as biochemical. The procedure: Compounds were tested in a biochemical inhibition assay using Prolyl endopeptidase, Prolyl Oligopeptidase (hPREP) enzyme at 0.6 nM FAC (R&D Systems, 4308-SE) and the substrate Z-Gly-Pro-amino-methylcoumarin (Bachem, I-1145) at 50 μM FAC. 384 Low volume black plates (Greiner #784076) were used. […] 4 μL, 100 μM substrate solution (25 mM Tris HCl, 250 mM NaCl, 0.01% Triton X-100, 5 mM Glutathione, pH 7.5) was added to each well. Plates were centrifuged at 1000 rpm and incubated for 20 min at rt in dark. […] Data were analyzed in Genedata Screener®.

Data set [2] concerns the target hFAP (Homo sapiens (Human), UniProt Q12884).
For data set [3], the system named is Rat Hepatocytes (rHep). Kind of data set: Metabolic stability in rat hepatocytes (rHep). The data set is classed as in vitro ADME. The procedure: Metabolic stability in rat hepatocytes was measured as described in J Comput Aided Mol Des 2015, 29, 795.
Data set [4] is described as follows: Metabolic stability in human liver microsomes (HLM). The data set is classed as in vitro ADME. Here is the method:
Metabolic stability in HLM was measured as described in J Comput Aided Mol Des 2015, 29, 795.
(In general: Liver microsomes are vesicles of endoplasmic reticulum, rich in cytochrome P450 enzymes.)

The nature of data set [5]: Kinetic solubility. Format: physicochemical. The following applies: kinetic from dmso stock. The procedure:
Kinetic solubility was measured as described in Comput Aided Mol Des 2015, 29, 795.

Data set [6] has as its target hFAP (M39-A757) (Homo sapiens (Human), UniProt Q12884).
Experimental: Compounds were tested in a direct binding assay using 8K surface plasmon resonance biosensor (GE Healthcare) at 20° C. Immobilization of hFAP (M39-A757) on a CMD200M sensor chip (Xantec) was performed using standard amine coupling procedure in immobilization buffer (10 mM HEPES, 150 mM NaCl, 0.05% Tween20, pH 7.4). The surface was washed with 10 mM NaOH, 1M NaCl before being activated with EDC/NHS (GE Healthcare), followed by immobilization of hFAP (in 10 mM Acetate pH 5.0). Finally, the surface was deactivated by ethanolamine. Immobilization levels of hFAP were around 4000-6000 RU. The reference spot was treated as described, omitting the injection of hFAP. Compound concentration series were injected over the immobilized protein in increasing concentrations (2-500 nM) using single cycle kinetics in running buffer (20 mM TRIS, 150 mM NaCl, 0.05% Tween20, 1% DMSO, pH 7.4). Interaction models were fitted globally to the experimental traces, enabling determination of kon, koff and Kd.
The target in data set [7] is human Fibroblast activation protein alpha (hFAP) (Homo sapiens (Human), UniProt Q12884). The experiment in a line: hFAP inhibition assay (tight binders). Format: biochemical. The following applies: tight-binder format, Ala-Pro-AMC 20 μM, 2.5 h incubation; n = 1 or geometric mean (n = 5-10). Here is the method:
Data were analyzed in Genedata Screener®.

Data set [8] has as its system Human Hepatocytes (hHep). The experiment in a line: Metabolic stability in human hepatocytes (hHep). The data set is classed as in vitro ADME. Here is the method:
Metabolic stability in human hepatocytes was measured as described in Xenobiotica 2010, 40, 637.

Sequence of hFAP (M39-A757) (Q12884 39-757): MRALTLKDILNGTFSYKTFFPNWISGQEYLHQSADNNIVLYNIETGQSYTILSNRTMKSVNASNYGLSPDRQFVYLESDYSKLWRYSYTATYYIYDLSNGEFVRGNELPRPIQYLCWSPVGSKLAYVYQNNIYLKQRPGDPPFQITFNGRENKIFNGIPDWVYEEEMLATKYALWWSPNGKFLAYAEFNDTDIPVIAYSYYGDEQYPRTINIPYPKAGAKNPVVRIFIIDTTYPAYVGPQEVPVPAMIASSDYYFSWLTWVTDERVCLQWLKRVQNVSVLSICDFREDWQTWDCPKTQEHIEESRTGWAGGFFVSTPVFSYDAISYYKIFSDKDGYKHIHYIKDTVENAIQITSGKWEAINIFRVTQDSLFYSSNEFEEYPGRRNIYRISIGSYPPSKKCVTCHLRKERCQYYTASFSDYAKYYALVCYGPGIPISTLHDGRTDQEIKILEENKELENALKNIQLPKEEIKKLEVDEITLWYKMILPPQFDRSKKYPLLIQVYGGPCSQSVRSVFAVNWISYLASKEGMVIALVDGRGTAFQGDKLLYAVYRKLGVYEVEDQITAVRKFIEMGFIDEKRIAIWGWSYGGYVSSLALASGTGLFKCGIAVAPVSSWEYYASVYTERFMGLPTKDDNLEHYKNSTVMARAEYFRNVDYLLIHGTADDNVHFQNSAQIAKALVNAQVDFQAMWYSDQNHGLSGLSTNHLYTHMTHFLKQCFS
Sequence of Prolyl Oligopeptidase (hPREP) (P48147 whole entry): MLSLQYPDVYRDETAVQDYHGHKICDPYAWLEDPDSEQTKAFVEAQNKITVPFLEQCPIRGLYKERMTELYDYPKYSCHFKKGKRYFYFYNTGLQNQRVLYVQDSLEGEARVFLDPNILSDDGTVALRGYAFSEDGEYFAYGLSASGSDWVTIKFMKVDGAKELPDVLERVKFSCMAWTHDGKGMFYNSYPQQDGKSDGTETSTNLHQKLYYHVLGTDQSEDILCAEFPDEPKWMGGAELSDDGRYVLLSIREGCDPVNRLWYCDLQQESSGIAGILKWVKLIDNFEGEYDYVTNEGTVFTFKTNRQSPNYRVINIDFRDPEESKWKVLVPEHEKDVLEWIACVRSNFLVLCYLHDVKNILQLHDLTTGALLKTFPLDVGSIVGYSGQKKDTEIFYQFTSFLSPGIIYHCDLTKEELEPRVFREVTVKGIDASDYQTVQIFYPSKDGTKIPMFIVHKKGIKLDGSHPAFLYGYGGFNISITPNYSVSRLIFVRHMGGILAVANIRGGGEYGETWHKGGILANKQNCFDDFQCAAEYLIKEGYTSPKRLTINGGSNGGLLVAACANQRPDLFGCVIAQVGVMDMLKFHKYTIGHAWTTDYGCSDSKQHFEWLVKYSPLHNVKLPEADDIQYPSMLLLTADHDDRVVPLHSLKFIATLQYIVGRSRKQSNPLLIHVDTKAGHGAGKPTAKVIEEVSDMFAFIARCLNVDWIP
Sequence of human Fibroblast activation protein alpha (hFAP) (Q12884 38-760): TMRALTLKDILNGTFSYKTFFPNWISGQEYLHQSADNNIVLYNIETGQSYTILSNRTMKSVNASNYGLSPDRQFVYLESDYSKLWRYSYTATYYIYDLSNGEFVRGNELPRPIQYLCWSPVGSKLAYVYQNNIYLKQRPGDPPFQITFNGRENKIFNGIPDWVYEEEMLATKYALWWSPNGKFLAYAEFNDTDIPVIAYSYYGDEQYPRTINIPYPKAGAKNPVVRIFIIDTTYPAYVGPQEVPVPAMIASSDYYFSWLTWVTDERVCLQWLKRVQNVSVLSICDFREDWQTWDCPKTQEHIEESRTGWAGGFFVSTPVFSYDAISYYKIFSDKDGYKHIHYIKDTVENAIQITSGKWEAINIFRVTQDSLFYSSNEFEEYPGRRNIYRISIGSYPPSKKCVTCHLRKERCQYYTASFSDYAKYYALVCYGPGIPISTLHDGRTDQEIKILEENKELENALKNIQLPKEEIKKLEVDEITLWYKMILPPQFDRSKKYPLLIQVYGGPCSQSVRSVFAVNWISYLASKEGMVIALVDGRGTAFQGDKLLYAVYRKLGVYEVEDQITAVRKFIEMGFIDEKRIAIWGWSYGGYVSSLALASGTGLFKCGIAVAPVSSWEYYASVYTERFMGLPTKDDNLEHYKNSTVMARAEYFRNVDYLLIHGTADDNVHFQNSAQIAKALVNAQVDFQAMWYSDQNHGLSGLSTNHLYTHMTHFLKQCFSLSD
Sequence of hFAP (Q12884 38-760): as above

Take `N#C[C@@H]1C[C@@H]2C[C@@H]2N1C(=O)CNC(=O)c1ccnc2cc(C3(C(F)(F)F)CC3)ccc12` [Example 36, N-(2-((1S,3S,5S)-3-Cyano-2-azabicyclo[3.1.0]hexan-2-yl)-2-oxoethyl)-7-(1-(trifluoromethyl)cyclopropyl)quinoline-4-carboxamide]: the IC50 in data set [1] was more than 50000 nM; in data set [2] it was 3.4 nM; in data set [7], 0.58 nM. Besides, the “rHeps CLint” value in data set [3] was determined as 92 μL/min/1E6. The same compound yielded a microsomal CLint in data set [4] of 180 µL/min/mg. Moreover, in data set [5], the solubility came out at 210 µM (≈ 90 µg/mL). For the same compound, the Kd in data set [6] came out at 4.3 nM.

As for `N#C[C@@H]1C[C@@H]2C[C@@H]2N1C(=O)CNC(=O)c1ccnc2cc(COC(F)(F)F)ccc12` [Example 29, N-(2-((1S,3S,5S)-3-Cyano-2-azabicyclo[3.1.0]hexan-2-yl)-2-oxoethyl)-7-((trifluoromethoxy)methyl)quinoline-4-carboxamide], the IC50 in data set [1] is more than 50000 nM; in data set [2], 1.3 nM; in data set [7] it was 0.3 nM. Besides, the “rHeps CLint” value in data set [3] was 81 μL/min/1E6. The compound further displayed a microsomal CLint in data set [4] of 8.9 µL/min/mg. In data set [5], this compound yielded a solubility of 23 µM (≈ 9.62 µg/mL). The compound also yielded a Kd in data set [6] of 11 nM.

In the case of `CC(C)(F)c1ccc2c(C(=O)NCC(=O)N3[C@H](C#N)C[C@@H]4C[C@@H]43)ccnc2c1` [Example 21, N-(2-((1S,3S,5S)-3-Cyano-2-azabicyclo[3.1.0]hexan-2-yl)-2-oxoethyl)-7-(2-fluoropropan-2-yl)quinoline-4-carboxamide], the IC50 is more than 50000 nM in data set [1], 2.8 nM in data set [2] and 0.97 nM in data set [7]. Besides, the “rHeps CLint” value in data set [3] was found to be 70 μL/min/1E6. This compound also showed a microsomal CLint in data set [4] of 13 µL/min/mg. Moreover, the solubility in data set [5] stood at 56 µM (≈ 21.3 µg/mL). Moreover, the affinity in data set [6], expressed as Kd, was 10 nM.

Consider `N#C[C@@H]1C[C@@H]2C[C@@H]2N1C(=O)CNC(=O)c1ccnc2ccc(COC(F)(F)F)cc12` [Example 17, N-(2-((1S,3S,5S)-3-Cyano-2-azabicyclo[3.1.0]hexan-2-yl)-2-oxoethyl)-6-((trifluoromethoxy)methyl)quinoline-4-carboxamide], for which the 50% inhibitory concentration (IC50) in data set [1] is more than 50000 nM; in data set [2], 1.7 nM; in data set [7], 0.38 nM. Besides, the “rHeps CLint” value in data set [3] amounted to 21 μL/min/1E6. The microsomal CLint in data set [4] was determined as 110 µL/min/mg. Further, the solubility in data set [5] was determined as 340 µM (≈ 142 µg/mL). In addition, the equilibrium dissociation constant (Kd) in data set [6] amounted to 8.5 nM.

In the case of `CC1(c2ccc3nccc(C(=O)NCC(=O)N4[C@H](C#N)C[C@@H]5C[C@@H]54)c3c2)CC1` [Example 43, N-(2-((1S,3S,5S)-3-Cyano-2-azabicyclo[3.1.0]hexan-2-yl)-2-oxoethyl)-6-(1-methylcyclopropyl)quinoline-4-carboxamide], the IC50 in data set [1] is more than 50000 nM; in data set [2] it was 2.9 nM; in data set [7], 0.56 nM. In data set [3], the “rHeps CLint” value turned out to be 67 μL/min/1E6. This compound also registered a microsomal CLint in data set [4] of 260 µL/min/mg. Further, in data set [5], the solubility came out at 820 µM (≈ 307 µg/mL). The same compound returned a Kd in data set [6] of 11 nM.

For `Cc1cc(C(=O)NCC(=O)N2[C@H](C#N)C[C@@H]3C[C@@H]32)c2ccc(F)cc2n1` [Example 8, N-(2-((1S,3S,5S)-3-Cyano-2-azabicyclo[3.1.0]hexan-2-yl)-2-oxoethyl)-7-fluoro-2-methylquinoline-4-carboxamide], the results for the IC50 in data set [1], in data set [2] and in data set [7] were 44000 nM, 71 nM and 20 nM, respectively. For the same compound, in data set [8], the “hHep CLint” value is given as less than 1 μL/min/1E6. Besides, the “rHeps CLint” value in data set [3] is on record as 1.3 μL/min/1E6. For the same compound, the microsomal CLint in data set [4] was less than 3 µL/min/mg. In data set [5], this compound had a solubility of 890 µM (≈ 314 µg/mL).

For `CC(C)(F)c1ccc2nccc(C(=O)NCC(=O)N3[C@H](C#N)C[C@@H]4C[C@@H]43)c2c1` [Example 12, N-(2-((1S,3S,5S)-3-Cyano-2-azabicyclo[3.1.0]hexan-2-yl)-2-oxoethyl)-6-(2-fluoropropan-2-yl)quinoline-4-carboxamide], the results for the IC50 in data set [1], in data set [2] and in data set [7] were more than 50000 nM, 3.8 nM and 0.75 nM, respectively. The “rHeps CLint” value in data set [3] was 20 μL/min/1E6. The compound further came in with a microsomal CLint in data set [4] of 100 µL/min/mg. Moreover, in data set [5], the solubility came out at 300 µM (≈ 114 µg/mL). In data set [6], this compound displayed a Kd of 13 nM.

`Cc1cc(C(=O)NCC(=O)N2[C@H](C#N)C[C@@H]3C[C@@H]32)c2cc(F)ccc2n1` [Example 4, N-(2-((1S,3S,5S)-3-Cyano-2-azabicyclo[3.1.0]hexan-2-yl)-2-oxoethyl)-6-fluoro-2-methylquinoline-4-carboxamide]: the IC50 in data set [1] is 22000 nM; in data set [2], 64 nM; in data set [7], 32 nM. For the same compound, in data set [8], the “hHep CLint” value is given as less than 1 μL/min/1E6. Moreover, the “rHeps CLint” value in data set [3] turned out to be 1.2 μL/min/1E6. Moreover, in data set [4], the microsomal CLint was less than 3 µL/min/mg. Besides, the solubility in data set [5] was more than 1000 µM.

As for `N#C[C@@H]1C[C@@H]2C[C@@H]2N1C(=O)CNC(=O)c1ccnc2ccc(OCC3CC3)cc12` [Example 35, N-(2-((1S,3S,5S)-3-Cyano-2-azabicyclo[3.1.0]hexan-2-yl)-2-oxoethyl)-6-(cyclopropylmethoxy)quinoline-4-carboxamide], the IC50 in data set [1] was more than 50000 nM; in data set [2], 0.64 nM; in data set [7], 0.097 nM. Also, the “hHep CLint” value in data set [8] was determined as 12 μL/min/1E6. In addition, the “rHeps CLint” value in data set [3] is given as 16 μL/min/1E6. In addition, the microsomal CLint in data set [4] stood at 90 µL/min/mg. In data set [5], the solubility is 590 µM (≈ 230 µg/mL).

For `COC(C)(C)c1ccc2nccc(C(=O)NCC(=O)N3[C@H](C#N)C[C@@H]4C[C@@H]43)c2c1` [Example 16, N-(2-((1S,3S,5S)-3-Cyano-2-azabicyclo[3.1.0]hexan-2-yl)-2-oxoethyl)-6-(2-methoxypropan-2-yl)quinoline-4-carboxamide], the IC50 in data set [1] is more than 50000 nM; in data set [2], 4.2 nM; in data set [7], 0.81 nM. In addition, the “rHeps CLint” value in data set [3] was 21 μL/min/1E6. This compound also returned a microsomal CLint in data set [4] of 72 µL/min/mg. In addition, the solubility in data set [5] is more than 1000 µM. In data set [6], binding was put at a Kd of 20 nM.

Regarding `COC(C)(C)c1ccc2c(C(=O)NCC(=O)N3[C@H](C#N)C[C@@H]4C[C@@H]43)ccnc2c1` [Example 28, N-(2-((1S,3S,5S)-3-Cyano-2-azabicyclo[3.1.0]hexan-2-yl)-2-oxoethyl)-7-(2-methoxypropan-2-yl)quinoline-4-carboxamide], the IC50 was more than 50000 nM in data set [1], 4.6 nM in data set [2] and 1.3 nM in data set [7]. Further, in data set [3], the “rHeps CLint” value stood at 5.2 μL/min/1E6. Moreover, the microsomal CLint in data set [4] came out at 36 µL/min/mg. Moreover, the solubility in data set [5] is more than 1000 µM. The Kd in data set [6] stood at 7.8 nM.

For `N#C[C@@H]1C[C@@H]2C[C@@H]2N1C(=O)CNC(=O)c1ccnc2cc(C(F)F)ccc12` [Example 22, N-(2-((1S,3S,5S)-3-Cyano-2-azabicyclo[3.1.0]hexan-2-yl)-2-oxoethyl)-7-(difluoromethyl)quinoline-4-carboxamide], the IC50 is more than 50000 nM in data set [1], 1.5 nM in data set [2] and 0.51 nM in data set [7]. For the same compound, the “hHep CLint” value in data set [8] is recorded as less than 1 μL/min/1E6. In data set [3], the “rHeps CLint” value is 2.9 μL/min/1E6. The microsomal CLint in data set [4] was less than 5.8 µL/min/mg. The solubility in data set [5] was more than 1000 µM.

Regarding `CC(C)Oc1ccc2nccc(C(=O)NCC(=O)N3[C@H](C#N)C[C@@H]4C[C@@H]43)c2c1` [Example 34, N-(2-((1S,3S,5S)-3-Cyano-2-azabicyclo[3.1.0]hexan-2-yl)-2-oxoethyl)-6-isopropoxyquinoline-4-carboxamide], the figures for the half-maximal inhibitory concentration (IC50) in data set [1], in data set [2] and in data set [7] were more than 50000 nM, 4.1 nM and 1.2 nM, respectively. The “hHep CLint” value in data set [8] came out at 15 μL/min/1E6. In addition, in data set [3], the “rHeps CLint” value was determined as 20 μL/min/1E6. For the same compound, in data set [4], the microsomal CLint is 160 µL/min/mg. The same compound returned a solubility in data set [5] of 850 µM (≈ 322 µg/mL).

Turning to `COC(C)c1ccc2nccc(C(=O)NCC(=O)N3[C@H](C#N)C[C@@H]4C[C@@H]43)c2c1` (stereo partly drawn) [Example 15, N-(2-((1S,3S,5S)-3-Cyano-2-azabicyclo[3.1.0]hexan-2-yl)-2-oxoethyl)-6-(1-methoxyethyl)quinoline-4-carboxamide], the results for the IC50 in data set [1], in data set [2] and in data set [7] were more than 50000 nM, 16 nM and 1.1 nM, respectively. Moreover, the “hHep CLint” value in data set [8] is reported as 3.3 μL/min/1E6. Further, the “rHeps CLint” value in data set [3] worked out at 9.4 μL/min/1E6. Further, the intrinsic metabolic clearance (microsomal CLint) in data set [4] stood at 30 µL/min/mg. The same compound registered a solubility in data set [5] of more than 1000 µM.

In the case of `COC(C)c1ccc2c(C(=O)NCC(=O)N3[C@H](C#N)C[C@@H]4C[C@@H]43)ccnc2c1` (stereo partly drawn) [Example 27, N-(2-((1S,3S,5S)-3-Cyano-2-azabicyclo[3.1.0]hexan-2-yl)-2-oxoethyl)-7-(1-methoxyethyl)quinoline-4-carboxamide], the IC50 in data set [1] is more than 50000 nM; in data set [2], 6 nM; in data set [7], 2 nM. Moreover, the “hHep CLint” value in data set [8] is listed as 3.1 μL/min/1E6. Besides, the “rHeps CLint” value in data set [3] is given as 7.2 μL/min/1E6. Further, the microsomal CLint in data set [4] came to 21 µL/min/mg. For the same compound, the solubility in data set [5] was more than 1000 µM.
